≈ marks a conversion by molar mass, not a printed value.
Columns and labels:
[1] = tested on: Mycobacterium tuberculosis; test: In vitro minimal inhibitory concentration against Mycobacterium tuberculosis [H37Rv stain]; assay type: functional
[2] = tested on: Mycobacterium tuberculosis; test: In vitro inhibitory concentration against Mycobacterium tuberculosis [H37Rv stain]; assay type: functional, organism-based
[3] = tested on: Mycobacterium tuberculosis; test: Log CFU in lungs of mice infected with H37Rv stain of Mycobacterium tuberculosis after administration at 25 mg/Kg; assay type: functional, Lung

Structure (SMILES): C/C(=N/NC(=O)c1ccncc1)c1cccc(CN2CCN(C)CC2)c1O
- MIC [1]: 8.61 µM (≈ 3.16 µg/mL)
- IC50 [2]: > 17.2 µM

Structure (SMILES): C/C(=N/NC(=O)c1ccncc1)c1cccc(CN(c2ccccc2)c2ccccc2)c1O
- MIC [1]: 3.57 µM (≈ 1.56 µg/mL)
- IC50 [2]: > 14.3 µM

Structure (SMILES): NNC(=O)c1ccncc1 [ISONIAZID]
- Log CFU [3]: 6.38
- MIC [1]: 2.04 µM (≈ 0.28 µg/mL)
- IC50 [2]: > 45.6 µM

Structure (SMILES): C/C(=N/NC(=O)c1ccncc1)c1cccc(CN2CCCC2)c1O
- MIC [1]: 4.61 µM (≈ 1.56 µg/mL)
- IC50 [2]: > 18.5 µM

Structure (SMILES): C/C(=N/NC(=O)c1ccncc1)c1cccc(CN2CCN(c3ccccn3)CC2)c1O
- MIC [1]: 0.9 µM (≈ 0.387 µg/mL)
- IC50 [2]: > 14.5 µM

Structure (SMILES): C/C(=N/NC(=O)c1ccncc1)c1cccc(CN2CCN(Cc3ccccc3)CC2)c1O
- MIC [1]: 0.88 µM (≈ 0.39 µg/mL)
- IC50 [2]: > 14.1 µM

Structure (SMILES): CCn1cc(C(=O)O)c(=O)c2cc(F)c(N3CCN(Cc4cccc(/C(C)=N\NC(=O)c5ccncc5)c4O)C(C)C3)c(F)c21 (centres undefined)
- MIC [1]: 1.26 µM (≈ 0.779 µg/mL)
- IC50 [2]: > 10.1 µM

Structure (SMILES): C/C(=N/NC(=O)c1ccncc1)c1cccc(CN(C)C)c1O
- MIC [1]: 2.49 µM (≈ 0.778 µg/mL)
- IC50 [2]: > 20 µM

Structure (SMILES): C/C(=N/NC(=O)c1ccncc1)c1cccc(CN2CCNCC2)c1O
- Log CFU [3]: 6.08
- MIC [1]: 0.56 µM (≈ 0.198 µg/mL)
- IC50 [2]: > 17.7 µM

Structure (SMILES): C/C(=N/NC(=O)c1ccncc1)c1cccc(CN(Cc2ccccc2)Cc2ccccc2)c1O
- MIC [1]: 3.36 µM (≈ 1.56 µg/mL)
- IC50 [2]: > 13.5 µM

Structure (SMILES): CCN(CC)Cc1cccc(/C(C)=N\NC(=O)c2ccncc2)c1O
- MIC [1]: 2.29 µM (≈ 0.78 µg/mL)
- IC50 [2]: > 18.4 µM

Structure (SMILES): C/C(=N/NC(=O)c1ccncc1)c1cccc(CN2CCCCC2)c1O
- MIC [1]: 4.43 µM (≈ 1.56 µg/mL)
- IC50 [2]: > 17.7 µM

Structure (SMILES): C/C(=N/NC(=O)c1ccncc1)c1cccc(CN2CCN(c3ccc(F)cc3)CC2)c1O
- MIC [1]: 0.87 µM (≈ 0.389 µg/mL)
- IC50 [2]: > 14 µM

Structure (SMILES): CCCCN(CCCC)Cc1cccc(/C(C)=N\NC(=O)c2ccncc2)c1O
- MIC [1]: 3.93 µM (≈ 1.56 µg/mL)
- IC50 [2]: > 15.8 µM

Structure (SMILES): C/C(=N/NC(=O)c1ccncc1)c1cccc(CN2CCOCC2)c1O
- MIC [1]: 2.2 µM (≈ 0.78 µg/mL)
- IC50 [2]: > 17.6 µM

Structure (SMILES): C/C(=N/NC(=O)c1ccncc1)c1cccc(CN2CCN(c3cc4c(cc3F)c(=O)c(C(=O)O)cn4C3CC3)CC2)c1O
- MIC [1]: 1.3 µM (≈ 0.778 µg/mL)
- IC50 [2]: > 10.4 µM

From ChEMBL document CHEMBL1142849, “Synthesis and in vitro and in vivo antimycobacterial activity of isonicotinoyl hydrazones” (Bioorg Med Chem Lett, 2005)
